Measurements reported in publication PMC8467576, “Novel Ubiquitin Specific Protease-13 Inhibitors Alleviate Neurodegenerative Pathology” (Metabolites, 2021).

Columns and labels:
USP13 = molecular target: T1, USP13 (Homo sapiens, UniProt Q92995); assay: USP13 activity via functional ELISA in alpha-synuclein transfected SH-SY5Y cells; assay type: cell-based; conditions: SH-SY5Y cells transfected with human alpha-synuclein, 5 h, read-out: Estimated IC50 to USP13
T1 construct: ELISA for USP13 (MyBioSource, Cat # MBS9335287, San Diego, CA, USA); endogenous in cells; host or cells: human SH-SY5Y neuroblastoma cells transfected with human wild-type alpha-synuclein
T1 sequence (Q92995 1-863): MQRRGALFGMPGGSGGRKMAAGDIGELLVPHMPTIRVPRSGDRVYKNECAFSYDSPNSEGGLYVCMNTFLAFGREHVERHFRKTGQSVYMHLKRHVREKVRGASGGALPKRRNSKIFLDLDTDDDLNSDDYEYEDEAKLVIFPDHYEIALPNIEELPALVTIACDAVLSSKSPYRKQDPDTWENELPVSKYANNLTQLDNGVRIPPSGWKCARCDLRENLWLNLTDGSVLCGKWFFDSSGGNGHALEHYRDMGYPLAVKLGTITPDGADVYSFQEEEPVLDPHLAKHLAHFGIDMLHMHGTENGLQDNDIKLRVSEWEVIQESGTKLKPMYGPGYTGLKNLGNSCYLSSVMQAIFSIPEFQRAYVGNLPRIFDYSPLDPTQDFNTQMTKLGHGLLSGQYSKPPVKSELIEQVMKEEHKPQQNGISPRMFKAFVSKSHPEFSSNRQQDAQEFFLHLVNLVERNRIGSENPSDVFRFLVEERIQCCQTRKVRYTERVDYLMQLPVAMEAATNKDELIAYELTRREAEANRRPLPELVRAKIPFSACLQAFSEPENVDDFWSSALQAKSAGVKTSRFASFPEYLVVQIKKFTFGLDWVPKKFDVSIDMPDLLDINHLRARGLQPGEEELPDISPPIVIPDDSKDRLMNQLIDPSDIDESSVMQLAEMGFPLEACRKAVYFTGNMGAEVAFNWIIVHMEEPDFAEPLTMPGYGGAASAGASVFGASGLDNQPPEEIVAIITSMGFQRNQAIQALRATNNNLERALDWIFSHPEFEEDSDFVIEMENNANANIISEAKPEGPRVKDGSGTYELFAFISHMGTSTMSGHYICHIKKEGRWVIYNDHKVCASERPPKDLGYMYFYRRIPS
Method: Stably transfected human neuroblastoma SH-SY5Y cells with human wild-type alpha-synuclein were treated with 1 mM, 100 µM, 10 µM, 1 µM, 0.1 µM, 0.01 µM and 0.001 µM of each of BK50118-A, BK50118-B, BK50118-C, CL3-499, CL3-512 and CL3-514 dissolved in an equivalent volume of DMSO for 5 h. […] The other 5 compounds were also able to lower alpha-synuclein levels but with less potency (Figure 3H,I,K–M).
(§1) SH-SY5Y cells were transiently transfected for 24 h with human wild-type α-synuclein using Fugene HD transfection reagent (Promega, E2311, Madison, WI, USA) according to manufacturer’s protocol. Cells were treated with 1 mM, 0.1 mM, 0.01 mM, 1 µM, 0.1 µM, 0.01 µM and 0.001 µM of each novel compounds (BK50118-A, BK50118-B, BK50118-C, CL3-499, CL3-512 and CL3-514) dissolved in DMSO for 5 h. Cells were then harvested on ice by removing culture medium and adding 0.2 mL 1x sodium-tris, EDTA, NP-40 (STEN) buffer (50 mM Tris (pH 7.6), 150 mM NaCl, 2 mM EDTA, 0.2 % NP-40, 0.2 % with Halt protease and phosphatase inhibitor solution (ThermoFisher, 78446). Cells were detached with a cell scraper and collected into centrifuge tubes and incubated at 4 °C for 30 min with agitation. Samples were stored at −80 °C and used for ELISA analyses. For cell viability assay, SHSY-5Y cells stably expressing human wild-type alpha-synuclein were treated with 1 mM, 0.1 mM, 0.01 mM, 1 µM, 0.1 µM, 0.01 µM and 0.001 µM of each novel compound (BK50118-A, BK50118-B, BK50118-C, CL3-499, CL3-512 and CL3-514) dissolved in DMSO for 5 h. Cell viability was determined via lactate dehydrogenase assay on culture media (Thermofisher, 88954) and MTT assay on plated cells (Thermofisher, V13154).
The ELISA for USP13 (MyBioSource, Cat # MBS9335287, San Diego, CA, USA), Human alpha-synuclein (Biolegend, Cat # 844101, San Diego, CA, USA) and specific p-Tau ser396 (Invitrogen, KHB7031, Waltham, MA, USA) were performed on cell or brain tissue extracts as described above according to manufacturers’ protocol.
All statistical analyses were performed using GraphPad Prism version 5.0 (GraphPad software, Inc, San Diego, CA, USA). Two-tailed student’s t-test was used in comparison of means of two groups. Ordinary one-way analysis of variance (ANOVA) followed by Newman–Keuls or Dunnett comparison post hoc tests were used in comparison of means of multiple groups. Asterisks denote actual p-value significances (* < 0.05, ** < 0.01, *** < 0.001 and **** < 0.0001), and N is the number of animals or the number of independent experiments (cell culture) per group. Unless otherwise indicated, data are expressed as Mean ± SD. IC50 to USP13 levels was also estimated using GraphPad Prism version 5.0 (GraphPad software, Inc, San Diego, CA, USA).

[1] = system: SH-SY5Y human neuroblastoma cells; assay: LDH and MTT cell viability assays; assay type: cell-based; conditions: 5 h, compared to DMSO or untreated controls
Method: BK50118-B and BK50118-C (Figure 2C,D) decreased cell viability near and above 100 μM compared to DMSO or untreated controls. CL3-499 (Figure 2G) decreased cell viability near and above 1 mM compared to DMSO or untreated controls.
as §1

IC50 (USP13): 420 pM
Compound: Fc1ccc2nccc(OCc3ccccc3)c2c1 [BK50118-C, 4-benzyloxy-6-fluoroquinoline]
concentration near and above which cell viability decreased [1]: ≥ 100 µM
